From patent EP0383591B1, “Use of 5-methyl-1-phenyl-2-(1H)-pyridone in the prevention of fibrotic lesions” (Yamauchi, Shitotomo, priority 1989, dated 1990)
Where “and” joins values, the source holds several entries; their conditions need not be identical. Equal entries are not always repeated. Marks after values point to notes of the source that are not given here.

Key:
[1] = tested on: Asbestos-Induced Pulmonary Interstitial Fibrosis; test: Effect of oral 5MP2P upon asbestos-induced pulmonary interstitial fibrosis in hamsters; assay type: in vivo; parameters: key to Pulmonary Fibrosis Scores Light Microscope (individual animal) / Pulmonary Fibrosis Scores Electron Microscope (individual animal): 0 = normal tissue; 1 = minimal; 2 = moderate; 3 = severe
Excerpt: In hamsters, pulmonary fibrosis induced with crysotile asbestos was removed following oral 5MP2P (cf. Table 4).
The novel role of 5MP2P in the therapeutic repair of fibrotic lung tissue featuring removal of fibrotic lesions, and concomitant regeneration of normal lung tissue has been observed in experimental asbestosis by histopathological examination of lung tissue specimens under the light microscope, and electron microscopy (Table 4).
This was subsequently confirmed by ashing of lung specimens in a laboratory oven, and then determining the asbestos content.

[2] = tested on: Pulmonary Interstitial Hyperplasia (Fibrosis); test: Effect of oral 5MP2P upon pulmonary interstitial hyperplasia in dogs; assay type: in vivo, Beagle dogs; details: for Hyperplasia Scores 0 (number of dogs): 0 = normal tissue; for Hyperplasia Scores 1 (number of dogs): 1 = minimal; for Hyperplasia Scores 2 (number of dogs): 2 = moderate; for Hyperplasia Scores 3 (number of dogs): 3 = severe; for Incidence of Normal Lung / Average Scores (hyperplasia): dogs; for Incidence of Normal Lung: control 0/9; for Average Scores (hyperplasia): score 0-3, control 2.11+0.31
Acute toxicity (LD50) = details: in vivo
Excerpt: The acute toxicity of the ingredient in the medical composition of the present invention which exerts the anti-fibrotic activity is as shown in the table below.

[3] = tested on: Pulmonary Interstitial Hyperplasia (Fibrosis); test: Effect of oral 5MP2P upon pulmonary interstitial hyperplasia in dogs; assay type: in vivo, Beagle dogs
Description: The mean score for Group I (Control) was 2.11 + 0.31, and for Group IV, which received 5MP2P, 150 mg/kg per day orally in capsules, was 0.22 + 0.15.

[4] = tested on: fibrosis (interstitial hyperplasia); test: Histopathological examination of the lungs of rats for fibrosis after 5MP2P in the diet; assay type: in vivo
Description: The results of a histopathological examination of the lungs of rats for fibrosis (interstitial hyperplasia) after receiving 300 mg/kg body of 5MP2P in the diet for three months are summarized in Table 2. The individual microscopic readings of the lung are also shown in Table 2, a score schedule of 0, 1, 2 and 3 reflects the degree of fibrosis.
The data in […] reveal a statistically significant reduction in amount of fibrosis in rats receiving 5MP2P as compared to placebo control rats (Group 1). The mean score for the controls (Group 1) was 1.63 + 0.23, and for Group IV (5MP2P, 300 mg/kg body weight daily) was 0.95 + 0.23.
Student's T value was 2.43, with P less than 0.02 (highly significant statistically).

[5] = hamsters, Group III: asbestos by inhalation for 5 days, 5MP2P 500 MG/KG/day orally in the diet for two months, beginning two months after exposure
[6] = 300 mg/kg in the diet for three months, 19 animals

**Q.** What does the source list for `Cc1ccc(=O)n(-c2ccccc2)c1` [5MP2P, 5-Methyl-1-phenyl-2-(1H)-pyridone]?
**A.** recurrence of asbestos-induced fibrosis ([1]; after 5MP2P had been discontinued for two months): did not recur; lung cell-imbedded asbestos fibers ([1]; electron microscope, confirmed by ashing of lung specimens and determining the asbestos content): had been removed; Pulmonary Fibrosis Scores Lung Density, Average ([1]; hamsters, Group III, 500 MG/KG/day in the diet for two months, asbestos without 5MP2P 2.53+0.23, no asbestos 1.00+0.05): 1.17+0.10**; Pulmonary Fibrosis Scores Electron Microscope, Average ([1]; hamsters, Group III, 500 MG/KG/day in the diet for two months, asbestos without 5MP2P 2.75+0.25, no asbestos 0.25+0.25): 0.25+0.25**; Pulmonary Fibrosis Scores Light Microscope, Average ([1]; hamsters, Group III, 500 MG/KG/day in the diet for two months, asbestos without 5MP2P 2.75+0.25, no asbestos 0.50+0.25): 1.00+0.41**; Pulmonary Fibrosis Scores Electron Microscope (individual animal) [1, 5]: 0 (3×) and 1; Pulmonary Fibrosis Scores Light Microscope (individual animal) [1, 5]: 0 and 2 and 1 (2×); Pulmonary Fibrosis Scores Lung Density (individual animal) [1, 5]: 0.98 and 1.04 and 1.26 and 1.41; pulmonary fibrosis induced with crysotile asbestos ([1]; hamsters, oral 5MP2P): removed; Hyperplasia Scores 0 (number of dogs) ([2]; 25 MG/KG/day, 6 dogs): 1; Hyperplasia Scores 1 (number of dogs) ([2]; 25 MG/KG/day, 6 dogs): 1; Hyperplasia Scores 2 (number of dogs) ([2]; 25 MG/KG/day, 6 dogs): 4; Hyperplasia Scores 3 (number of dogs) ([2]; 25 MG/KG/day, 6 dogs): 0; Hyperplasia Scores 0 (number of dogs) ([2]; 75 MG/KG/day, 8 dogs): 2; Hyperplasia Scores 1 (number of dogs) ([2]; 75 MG/KG/day, 8 dogs): 2; Hyperplasia Scores 2 (number of dogs) ([2]; 75 MG/KG/day, 8 dogs): 3; Hyperplasia Scores 3 (number of dogs) ([2]; 75 MG/KG/day, 8 dogs): 1; Hyperplasia Scores 2 (number of dogs) ([2]; 150 MG/KG/day, 9 dogs): 0; Hyperplasia Scores 3 (number of dogs) ([2]; 150 MG/KG/day, 9 dogs): 0; Incidence of Normal Lung ([2]; 25 MG/KG/day oral): 1/6; Incidence of Normal Lung ([2]; 75 MG/KG/day oral): 2/8; Average Scores (hyperplasia) ([2]; Group II, 25 MG/KG/day oral): 1.50+0.34; Average Scores (hyperplasia) ([2]; Group III, 75 MG/KG/day oral): 1.38+0.38; LD50 (Acute toxicity (LD50); ip, Guinea pig): 460 ± 28 mg/kg; LD50 (Acute toxicity (LD50); ip, Mouse): 600 ± 43 mg/kg; LD50 (Acute toxicity (LD50); ip, Rat): 430 ± 29 mg/kg; LD50 (Acute toxicity (LD50); iv, Cat): 40 mg/kg; LD50 (Acute toxicity (LD50); iv, Dog): 200 mg/kg; LD50 (Acute toxicity (LD50); iv, Monkey): 100 mg/kg; LD50 (Acute toxicity (LD50); iv, Mouse): 285 ± 5 mg/kg; LD50 (Acute toxicity (LD50); iv, Rabbit): 280 ± 32 mg/kg; LD50 (Acute toxicity (LD50); po, Cat): 500 mg/kg; LD50 (Acute toxicity (LD50); po, Dog): 300 mg/kg; LD50 (Acute toxicity (LD50); po, Guinea pig): 810 ± 25 mg/kg; LD50 (Acute toxicity (LD50); po, Mouse): 998 mg/kg; LD50 (Acute toxicity (LD50); po, Rat female): 2300 mg/kg; LD50 (Acute toxicity (LD50); po, Rat male): 1300 mg/kg; Hyperplasia Scores 0 (number of dogs) ([3]; 150 MG/KG/day, 9 dogs, 0 = normal tissue): 7; Hyperplasia Scores 1 (number of dogs) ([3]; 150 MG/KG/day, 9 dogs, 1 = minimal): 2; Incidence of Normal Lung ([3]; dogs, 150 MG/KG/day oral, control 0/9): 7/9; Lung Connective Tissue Score 0, Total (number of animals) [4, 6]: 5; Lung Connective Tissue Score 1, Total (number of animals) [4, 6]: 11; Lung Connective Tissue Score 2, Total (number of animals) [4, 6]: 2; Lung Connective Tissue Score 3, Total (number of animals) [4, 6]: 1; Lung Connective Tissue Score, Mean ([4]; Group IV, 300 mg/kg body weight daily in the diet for three months, score schedule 0-3, control mean 1.63, P<0.02, 300 mg/kg): 0.95 ± 0.23 and 0.95
